The nature of the series: Pharmacokinetic investigations in vivo, rat. The note with it: Rat (Wistar). On the procedure: The substance to be examined is administered to rats, mice or dogs intravenously as a solution (for example in corresponding plasma with a small addition of DMSO or in a PEG/ethanol/water mixture), and peroral administration is effected as a solution (for example in Solutol/ethanol/water or PEG/ethanol/water mixtures) or as a suspension (e.g. in a water/tylose mixture), in each case via a gavage. After administration of the substance, blood is taken from the animals at fixed times. The blood is heparinized, then plasma is obtained therefrom by centrifugation. The test substance is quantified analytically in the plasma via LC-MS/MS. From the plasma concentration/time plots determined in this way, using an internal standard and with the aid of a validated computer program, the pharmacokinetic parameters, such as AUC (area under the concentration/time curve), Cmax (maximum plasma concentration), t1/2 (half life), VSS (distribution volume) and CL (clearance), and the absolute and relative bioavailability F and Frel (i.v./p.o. comparison or comparison of suspension to solution after p.o. administration), are calculated.

We go through one compound from patent US20170119776A1, “CHIRAL 2,5-DISUBSTITUTED CYCLOPENTANECARBOXYLIC ACID DERIVATIVES AND USE THEREOF” (BAYER PHARMA AKTIENGESELLSCHAFT, priority 2014, published 2017).

Turning to `O=C(O)[C@H]1[C@H](Cn2nnc3ccccc3c2=O)CC[C@@H]1C(=O)c1ccc(OCc2ccccc2)cc1` [Example 2, (+)-(1S,2S,5R)-2-[4-(Benzyloxy)benzoyl]-5-[(4-oxo-1,2,3-benzotriazin-3(4H)-yl)methyl]cyclopentanecarboxylic acid], under “bioavailability from solution”, the F worked out at 100%. This compound came in with an AUCnorm i.v. (i.v.) of 93.6 kg·h/L. In addition, under “suspension vs solution p.o.”, the Frel was determined as 97%. The clearance (plasma, iv, read-out: CLPlasma CLblood (converted)) was 0.183 mL/min/kg. For the same compound, the half-life (plasma, po, p.o., read-out: t1/2 p.o. (converted)) was 8.4 h.
